The values below are quoted from earlier work in patent publication US20060099249A1, “Modified release formulations of at least one form of tramadol” (priority 2002, published 2006).

The structures appear in SMILES notation. Read-outs that look alike come from different tables or passages of the source.

Data set [1] deals with osteoarthritis. To be noted: rofecoxib 12.5 mg.
Data set [2] relates to osteoarthritis. To be noted: 12 weeks, celecoxib 100 mg BID, Naproxen 500 mg BID.
The mark [3] stands for this setting: Study No. 033, Ibuprofen 2400 mg, over 6-weeks.
[4] abbreviates: Study No. 040, Ibuprofen 2400 mg, over 6-weeks.
Where [5] appears, read: Study No. 058, Nabumetone 1500 mg, over 6-weeks.

Take `CS(=O)(=O)c1ccc(C2=C(c3ccccc3)C(=O)OC2)cc1` [rofecoxib, Rofecoxib]: the “WOMAC pain walking on a flat surface, mean difference vs placebo” value in the data set with osteoarthritis [1] (Study No. 029, LS mean change from baseline over 6-weeks) is 14.3 mm; in the data set with osteoarthritis [1] (setting [3]), 12.4 mm; in the data set with osteoarthritis [1] (setting [4]) it was 15.4 mm; with osteoarthritis [1] (setting [5]), 9.0 mm.

In the case of `COc1ccc2cc(CCC(C)=O)ccc2c1` [Nabumetone], in the data set on osteoarthritis [1] (setting [5]), the “WOMAC pain walking on a flat surface, mean difference vs placebo” value was 10 mm.

`CC(C)Cc1ccc(C(C)C(=O)O)cc1` (stereo not drawn) [Ibuprofen]: the entries for the “WOMAC pain walking on a flat surface, mean difference vs placebo” value in the data set with osteoarthritis [1] (setting [3]) and with osteoarthritis [1] (setting [4]) were 13.5 mm and 14.6 mm, respectively.

`COc1ccc2cc([C@H](C)C(=O)O)ccc2c1` [Naproxen]: the “Arthritis Pain VAS change from baseline, LS mean difference vs placebo” value with osteoarthritis [2] (Study No. 020) was 7.6 mm; in the data set on osteoarthritis [2] (Study No. 054), 11.2 mm.
